Measured values: patent US11547697B2, “Heterocyclic compounds and uses thereof” (MILLENNIUM PHARMACEUTICALS, INC., priority 2009, dated 2023)
Like-named read-outs stand apart in the source and are kept apart here.

How the values were obtained:
[1] = target: p110β/p85α (Homo sapiens (Human), UniProt P42338); test: PI 3-Kinase (human) HTRF assay, p110β/p85α; type: biochemical; details: read-out: PI3K β IC50
[2] = target: p110δ/p85α (Homo sapiens (Human), UniProt O00329); test: PI 3-Kinase (human) HTRF assay, p110δ/p85α; type: biochemical; details: read-out: PI3K δ IC50
[3] = tested on: tumor cells with a PI3Kα mutation (e.g., MDA-MB-361 and T47D); test: Proliferation of tumor cells with PI3Kα mutation; type: cell-based; details: Homo sapiens, T47D cells
[4] = target: p110α/p85α (Homo sapiens (Human), UniProt P42336); test: PI 3-Kinase (human) HTRF assay, p110α/p85α; type: biochemical; details: read-out: PI3K α IC50
[5] = target: p110γ (Homo sapiens (Human), UniProt P48736); test: PI 3-Kinase (human) HTRF assay, p110γ; type: biochemical; details: read-out: PI3K γ IC50
[6] = read-out: T47D proliferation IC50

Sequence of p110δ/p85α (O00329 whole entry): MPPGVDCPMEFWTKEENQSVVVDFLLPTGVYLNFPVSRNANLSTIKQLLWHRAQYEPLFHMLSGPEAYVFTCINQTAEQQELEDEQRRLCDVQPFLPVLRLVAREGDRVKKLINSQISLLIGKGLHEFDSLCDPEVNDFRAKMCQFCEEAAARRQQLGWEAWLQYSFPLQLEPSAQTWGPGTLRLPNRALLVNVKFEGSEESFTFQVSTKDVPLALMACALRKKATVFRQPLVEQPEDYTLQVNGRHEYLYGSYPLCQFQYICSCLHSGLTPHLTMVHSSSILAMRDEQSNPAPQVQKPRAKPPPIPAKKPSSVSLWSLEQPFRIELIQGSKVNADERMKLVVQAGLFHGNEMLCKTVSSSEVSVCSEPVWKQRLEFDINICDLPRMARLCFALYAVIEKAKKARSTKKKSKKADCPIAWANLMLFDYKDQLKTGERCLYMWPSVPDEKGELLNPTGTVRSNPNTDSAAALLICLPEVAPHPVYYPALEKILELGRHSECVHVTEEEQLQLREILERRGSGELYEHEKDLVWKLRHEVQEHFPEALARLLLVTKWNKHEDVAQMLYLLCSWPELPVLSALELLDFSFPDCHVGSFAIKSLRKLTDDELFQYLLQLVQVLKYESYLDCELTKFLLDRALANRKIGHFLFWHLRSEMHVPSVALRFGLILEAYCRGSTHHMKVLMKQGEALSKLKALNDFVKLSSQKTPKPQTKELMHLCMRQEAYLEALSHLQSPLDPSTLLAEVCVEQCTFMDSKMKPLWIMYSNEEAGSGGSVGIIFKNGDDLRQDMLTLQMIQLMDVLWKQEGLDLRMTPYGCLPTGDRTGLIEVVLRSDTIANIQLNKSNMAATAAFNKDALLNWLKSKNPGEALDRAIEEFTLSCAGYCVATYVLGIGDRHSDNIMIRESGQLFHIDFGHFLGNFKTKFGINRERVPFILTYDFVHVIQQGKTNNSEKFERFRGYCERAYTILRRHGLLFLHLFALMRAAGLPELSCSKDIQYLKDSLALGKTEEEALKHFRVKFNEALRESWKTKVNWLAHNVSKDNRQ
Sequence of p110δ/p85α (P27986 whole entry partner): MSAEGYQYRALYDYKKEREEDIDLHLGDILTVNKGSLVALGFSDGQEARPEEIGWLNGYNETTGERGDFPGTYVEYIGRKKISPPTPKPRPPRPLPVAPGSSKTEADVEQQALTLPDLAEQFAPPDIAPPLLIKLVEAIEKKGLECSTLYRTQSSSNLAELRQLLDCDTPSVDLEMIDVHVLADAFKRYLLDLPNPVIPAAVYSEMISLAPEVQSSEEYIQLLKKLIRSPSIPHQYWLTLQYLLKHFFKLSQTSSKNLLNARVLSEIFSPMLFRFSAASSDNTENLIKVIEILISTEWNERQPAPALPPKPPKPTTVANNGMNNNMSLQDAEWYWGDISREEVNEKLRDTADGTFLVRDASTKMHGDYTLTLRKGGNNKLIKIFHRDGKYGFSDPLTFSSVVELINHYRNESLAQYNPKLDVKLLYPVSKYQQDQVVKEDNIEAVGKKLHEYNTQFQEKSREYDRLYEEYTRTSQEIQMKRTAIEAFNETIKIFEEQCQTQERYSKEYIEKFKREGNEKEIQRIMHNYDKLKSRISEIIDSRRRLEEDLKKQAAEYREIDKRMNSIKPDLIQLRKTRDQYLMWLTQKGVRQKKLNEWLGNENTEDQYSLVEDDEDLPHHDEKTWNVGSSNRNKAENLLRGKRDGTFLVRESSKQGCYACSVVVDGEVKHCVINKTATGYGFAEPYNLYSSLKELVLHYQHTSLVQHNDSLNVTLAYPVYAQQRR
Sequence of p110γ (P48736 whole entry): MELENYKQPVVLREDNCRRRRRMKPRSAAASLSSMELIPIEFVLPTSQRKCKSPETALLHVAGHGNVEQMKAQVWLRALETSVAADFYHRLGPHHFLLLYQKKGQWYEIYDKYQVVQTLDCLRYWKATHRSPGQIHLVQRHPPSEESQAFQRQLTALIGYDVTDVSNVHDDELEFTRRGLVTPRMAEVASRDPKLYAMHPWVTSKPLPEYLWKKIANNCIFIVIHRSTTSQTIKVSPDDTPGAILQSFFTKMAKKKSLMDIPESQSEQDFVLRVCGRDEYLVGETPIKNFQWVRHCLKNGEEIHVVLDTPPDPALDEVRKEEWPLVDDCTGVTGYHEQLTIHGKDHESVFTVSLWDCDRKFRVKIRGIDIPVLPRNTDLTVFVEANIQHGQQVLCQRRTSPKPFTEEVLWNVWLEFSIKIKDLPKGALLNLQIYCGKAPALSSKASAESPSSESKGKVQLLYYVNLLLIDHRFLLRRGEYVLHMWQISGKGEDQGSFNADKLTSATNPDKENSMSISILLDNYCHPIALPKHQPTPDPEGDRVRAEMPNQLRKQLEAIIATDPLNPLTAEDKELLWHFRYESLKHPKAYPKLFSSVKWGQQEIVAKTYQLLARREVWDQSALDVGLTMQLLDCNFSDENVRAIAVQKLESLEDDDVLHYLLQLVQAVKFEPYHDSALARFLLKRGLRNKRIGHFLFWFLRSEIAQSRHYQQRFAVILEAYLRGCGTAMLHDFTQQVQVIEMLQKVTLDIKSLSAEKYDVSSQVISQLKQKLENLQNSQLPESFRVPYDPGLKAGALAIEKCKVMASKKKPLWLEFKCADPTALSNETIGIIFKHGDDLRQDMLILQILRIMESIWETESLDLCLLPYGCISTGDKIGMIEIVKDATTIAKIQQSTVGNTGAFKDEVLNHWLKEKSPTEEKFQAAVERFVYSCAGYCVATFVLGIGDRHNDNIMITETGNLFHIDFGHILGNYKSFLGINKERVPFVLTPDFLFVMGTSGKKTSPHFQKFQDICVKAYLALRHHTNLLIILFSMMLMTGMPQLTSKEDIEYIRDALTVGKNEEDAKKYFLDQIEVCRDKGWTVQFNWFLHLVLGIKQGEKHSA
Sequence of p110α/p85α (P42336 whole entry): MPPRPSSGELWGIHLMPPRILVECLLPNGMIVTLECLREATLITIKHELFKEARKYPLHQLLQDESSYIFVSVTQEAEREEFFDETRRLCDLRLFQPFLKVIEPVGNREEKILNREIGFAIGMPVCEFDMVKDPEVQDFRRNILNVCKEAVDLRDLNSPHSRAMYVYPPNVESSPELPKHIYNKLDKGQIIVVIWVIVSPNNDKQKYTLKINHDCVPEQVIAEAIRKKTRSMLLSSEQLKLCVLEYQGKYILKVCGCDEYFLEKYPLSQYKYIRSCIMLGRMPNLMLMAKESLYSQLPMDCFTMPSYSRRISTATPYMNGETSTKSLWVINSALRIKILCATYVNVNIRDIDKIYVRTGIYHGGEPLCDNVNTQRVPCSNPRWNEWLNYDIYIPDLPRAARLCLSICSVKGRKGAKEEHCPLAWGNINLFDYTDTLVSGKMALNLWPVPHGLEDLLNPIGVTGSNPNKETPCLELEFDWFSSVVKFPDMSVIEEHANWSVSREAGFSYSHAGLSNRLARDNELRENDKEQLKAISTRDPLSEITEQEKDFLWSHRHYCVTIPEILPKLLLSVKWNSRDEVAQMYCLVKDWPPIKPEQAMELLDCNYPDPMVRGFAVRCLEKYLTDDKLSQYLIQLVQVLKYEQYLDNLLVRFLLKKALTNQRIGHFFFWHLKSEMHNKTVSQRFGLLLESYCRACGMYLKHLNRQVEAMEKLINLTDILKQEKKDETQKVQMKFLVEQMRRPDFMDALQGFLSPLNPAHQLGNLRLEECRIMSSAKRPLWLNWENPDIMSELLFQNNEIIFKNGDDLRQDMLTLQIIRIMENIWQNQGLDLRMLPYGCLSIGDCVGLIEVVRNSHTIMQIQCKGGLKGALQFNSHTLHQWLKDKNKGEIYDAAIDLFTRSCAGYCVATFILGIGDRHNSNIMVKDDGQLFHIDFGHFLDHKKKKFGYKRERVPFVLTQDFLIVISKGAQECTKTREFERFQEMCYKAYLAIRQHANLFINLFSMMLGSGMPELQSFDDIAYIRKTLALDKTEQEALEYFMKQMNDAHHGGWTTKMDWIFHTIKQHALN
Sequence of p110α/p85α (P27986 whole entry partner): as the sequence (P27986 whole entry partner) above
Sequence of p110β/p85α (P42338 whole entry): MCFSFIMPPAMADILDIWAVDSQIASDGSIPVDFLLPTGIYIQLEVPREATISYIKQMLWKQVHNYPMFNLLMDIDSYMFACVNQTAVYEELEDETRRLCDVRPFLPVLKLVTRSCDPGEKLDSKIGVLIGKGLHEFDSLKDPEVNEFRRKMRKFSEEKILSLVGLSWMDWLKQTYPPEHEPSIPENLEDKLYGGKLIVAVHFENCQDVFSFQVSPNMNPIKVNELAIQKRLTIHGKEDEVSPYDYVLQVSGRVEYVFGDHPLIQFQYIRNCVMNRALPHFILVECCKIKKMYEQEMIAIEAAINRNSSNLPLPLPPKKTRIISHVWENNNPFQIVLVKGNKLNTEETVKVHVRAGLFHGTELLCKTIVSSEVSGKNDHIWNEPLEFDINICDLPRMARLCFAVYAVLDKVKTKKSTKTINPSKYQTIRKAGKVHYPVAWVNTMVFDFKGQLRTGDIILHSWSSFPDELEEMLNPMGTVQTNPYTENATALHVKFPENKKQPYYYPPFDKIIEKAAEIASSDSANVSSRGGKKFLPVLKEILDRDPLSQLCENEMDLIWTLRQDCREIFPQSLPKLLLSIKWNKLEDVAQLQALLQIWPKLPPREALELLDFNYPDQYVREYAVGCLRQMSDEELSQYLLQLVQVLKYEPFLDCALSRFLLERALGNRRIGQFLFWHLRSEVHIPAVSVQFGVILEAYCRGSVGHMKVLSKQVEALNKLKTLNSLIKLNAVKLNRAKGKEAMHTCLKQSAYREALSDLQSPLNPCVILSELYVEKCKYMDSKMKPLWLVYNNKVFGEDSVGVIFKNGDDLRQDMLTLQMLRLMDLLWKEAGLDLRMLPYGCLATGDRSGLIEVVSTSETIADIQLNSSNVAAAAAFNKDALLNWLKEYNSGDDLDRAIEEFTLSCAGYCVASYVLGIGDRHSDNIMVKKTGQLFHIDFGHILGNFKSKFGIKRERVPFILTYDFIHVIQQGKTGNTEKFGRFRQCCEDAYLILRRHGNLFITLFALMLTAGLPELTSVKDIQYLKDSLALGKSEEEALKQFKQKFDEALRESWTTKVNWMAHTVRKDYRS
Sequence of p110β/p85α (P27986 whole entry partner): as the sequence (P27986 whole entry partner) above

**Q.** `Nc1nc2cc(-c3ccc4ncc(N5CCN(CC6CC6)CC5)nc4c3)ccc2o1` [compound 153] was tested. Which IC50 [1] did it give?
**A.** < 100 nM

**Q.** And the IC50 [2]?
**A.** < 1000 nM

**Q.** And the IC50 ([3]; read-out: T47D proliferation)?
**A.** < 1 µM

**Q.** And the IC50 [4]?
**A.** < 100 nM

**Q.** And the IC50 [5]?
**A.** < 1000 nM

**Q.** With `CNC(=O)N1CCN(c2cnc3ccc(-c4ccc5oc(N)nc5c4)cc3n2)CC1` [compound 154] as the compound, how does the IC50 [1] read?
**A.** < 1000 nM

**Q.** What about the IC50 [2] of the same compound?
**A.** < 10000 nM

**Q.** And the IC50 ([3]; read-out: T47D proliferation)?
**A.** < 1 µM

**Q.** What about the IC50 [4] of the same compound?
**A.** < 100 nM

**Q.** And the IC50 [5]?
**A.** < 100 nM

**Q.** With `CN1CC(C(=O)N2CCN(c3cnc4ccc(-c5ccc6oc(N)nc6c5)cc4n3)CC2)C1` [compound 156] as the compound, how does the IC50 [1] read?
**A.** < 1000 nM

**Q.** And the IC50 [2]?
**A.** < 1000 nM

**Q.** What about the IC50 ([3]; read-out: T47D proliferation) of the same compound?
**A.** < 1 µM

**Q.** What about the IC50 [4] of the same compound?
**A.** < 100 nM

**Q.** And the IC50 [5]?
**A.** < 1000 nM

**Q.** `CN1CCC(NC(=O)c2cnc3ccc(-c4ccc5oc(N)nc5c4)cn23)CC1` [compound 159] was tested. Which IC50 [1] did it give?
**A.** < 1000 nM

**Q.** And the IC50 [2]?
**A.** < 100 nM

**Q.** What about the IC50 ([3]; read-out: T47D proliferation) of the same compound?
**A.** < 10 µM

**Q.** And the IC50 [4]?
**A.** < 100 nM

**Q.** And the IC50 [5]?
**A.** < 1000 nM

**Q.** How did the IC50 [1] turn out when `Nc1nc2cc(-c3ccc4ncc(N5CCC(N6CCOCC6)CC5)nc4c3)ccc2o1` [compound 171] was run?
**A.** < 1000 nM

**Q.** What about the IC50 [2] of the same compound?
**A.** < 1000 nM

**Q.** And the IC50 ([3]; read-out: T47D proliferation)?
**A.** < 1 µM

**Q.** What about the IC50 [4] of the same compound?
**A.** < 100 nM

**Q.** And the IC50 [5]?
**A.** < 1000 nM

**Q.** `CC1CN(c2cnc3ccc(-c4ccc5oc(N)nc5c4)cc3n2)CCO1` (stereo not drawn) [compound 173] was tested. Which IC50 [1] did it give?
**A.** < 1000 nM

**Q.** What about the IC50 [2] of the same compound?
**A.** < 10000 nM

**Q.** And the IC50 ([3]; read-out: T47D proliferation)?
**A.** < 10 µM

**Q.** And the IC50 [4]?
**A.** < 100 nM

**Q.** And the IC50 [5]?
**A.** < 100 nM

**Q.** For `Cc1nccn1-c1cnc2ccc(-c3ccc4oc(N)nc4c3)cc2n1` [compound 174], which IC50 [1] is on record?
**A.** < 1000 nM

**Q.** What about the IC50 [2] of the same compound?
**A.** < 10000 nM

**Q.** And the IC50 ([3]; read-out: T47D proliferation)?
**A.** < 10 µM

**Q.** And the IC50 [4]?
**A.** < 100 nM

**Q.** What about the IC50 [5] of the same compound?
**A.** < 100 nM

**Q.** Which results are given for `Nc1nc2cc(-c3ccc4ncc(N5CCCC5)nc4c3)ccc2o1` [compound 176]?
**A.** IC50 [1]: < 1000 nM; IC50 [2]: < 1000 nM; IC50 ([3]; read-out: T47D proliferation): < 1 µM; IC50 [4]: < 100 nM; IC50 [5]: < 100 nM

**Q.** With `C[C@@H]1CN(c2cnc3ccc(-c4ccc5oc(N)nc5c4)cc3n2)CCN1` [compound 179] as the compound, how does the IC50 [1] read?
**A.** < 1000 nM

**Q.** And the IC50 [2]?
**A.** < 10000 nM

**Q.** What about the IC50 ([3]; read-out: T47D proliferation) of the same compound?
**A.** < 10 µM

**Q.** What about the IC50 [4] of the same compound?
**A.** < 100 nM

**Q.** What about the IC50 [5] of the same compound?
**A.** < 10000 nM

**Q.** Which results are given for `CS(=O)(=O)CCN1CCC(Nc2cnc3ccc(-c4ccc5oc(N)nc5c4)cc3n2)CC1` [compound 181]?
**A.** IC50 [1]: < 10000 nM; IC50 [2]: < 1000 nM; IC50 ([3]; read-out: T47D proliferation): < 10 µM; IC50 [4]: < 100 nM; IC50 [5]: < 100 nM

**Q.** Which IC50 [1] does the source give for `CC(C)(C)N1CCN(c2cnc3ccc(-c4ccc5oc(N)nc5c4)cc3n2)CC1` [compound 182] here?
**A.** < 1000 nM

**Q.** And the IC50 [2]?
**A.** < 1000 nM

**Q.** And the IC50 ([3]; read-out: T47D proliferation)?
**A.** < 10 µM

**Q.** What about the IC50 [4] of the same compound?
**A.** < 100 nM

**Q.** What about the IC50 [5] of the same compound?
**A.** < 1000 nM

**Q.** For `CCn1cnc2ccc(-c3ccc4oc(N)nc4c3)cc2c1=O` [compound 183], which IC50 [1] is on record?
**A.** < 10000 nM

**Q.** And the IC50 [2]?
**A.** < 10000 nM

**Q.** What about the IC50 ([3]; read-out: T47D proliferation) of the same compound?
**A.** < 10 µM

**Q.** And the IC50 [4]?
**A.** < 100 nM

**Q.** What about the IC50 [5] of the same compound?
**A.** < 100 nM

**Q.** For `Nc1nc2cc(-c3ccc4ncc(C(=O)N5CCCC5)n4c3)ccc2o1` [compound 186], which IC50 [1] is on record?
**A.** < 10000 nM

**Q.** What about the IC50 [2] of the same compound?
**A.** < 1000 nM

**Q.** What about the IC50 ([3]; read-out: T47D proliferation) of the same compound?
**A.** < 10 µM

**Q.** And the IC50 [4]?
**A.** < 100 nM

**Q.** What about the IC50 [5] of the same compound?
**A.** < 100 nM

**Q.** Which results are given for `Nc1nc2cc(-c3ccc4ncc(C(=O)NC5CC5)n4c3)ccc2o1` [compound 187]?
**A.** IC50 [1]: < 10000 nM; IC50 [2]: < 1000 nM; IC50 ([3]; read-out: T47D proliferation): < 1 µM; IC50 [4]: < 100 nM; IC50 [5]: < 100 nM

**Q.** With `CCNC(=O)c1cnc2ccc(-c3ccc4oc(N)nc4c3)cn12` [compound 188] as the compound, how does the IC50 [1] read?
**A.** < 1000 nM

**Q.** What about the IC50 [2] of the same compound?
**A.** < 1000 nM

**Q.** What about the IC50 ([3]; read-out: T47D proliferation) of the same compound?
**A.** < 1 µM

**Q.** What about the IC50 [4] of the same compound?
**A.** < 100 nM

**Q.** What about the IC50 [5] of the same compound?
**A.** < 100 nM

**Q.** Which IC50 [1] does the source give for `Nc1nc2cc(-c3ccc4ncc(C(=O)NCCO)n4c3)ccc2o1` [compound 189] here?
**A.** < 1000 nM

**Q.** What about the IC50 [2] of the same compound?
**A.** < 1000 nM

**Q.** What about the IC50 ([3]; read-out: T47D proliferation) of the same compound?
**A.** < 1 µM

**Q.** And the IC50 [4]?
**A.** < 100 nM

**Q.** What about the IC50 [5] of the same compound?
**A.** < 1000 nM

**Q.** How did the IC50 ([1]; in vitro) turn out when `Nc1nc2cc(-c3ccc4ncc(C(=O)N5CC(O)C5)n4c3)ccc2o1` [compound 200] was run?
**A.** < 10000 nM

**Q.** What about the IC50 ([2]; in vitro) of the same compound?
**A.** < 10000 nM

**Q.** And the IC50 [3, 6]?
**A.** < 10 µM

**Q.** What about the IC50 ([4]; in vitro) of the same compound?
**A.** < 100 nM

**Q.** What about the IC50 ([5]; in vitro) of the same compound?
**A.** < 100 nM

**Q.** Which results are given for `Nc1nc2cc(-c3ccc4ncc(C(=O)N5CCC(O)C5)n4c3)ccc2o1` (stereo not drawn) [compound 202]?
**A.** IC50 ([1]; in vitro): < 10000 nM; IC50 ([2]; in vitro): < 10000 nM; IC50 [3, 6]: < 1 µM; IC50 ([4]; in vitro): < 100 nM; IC50 ([5]; in vitro): < 1000 nM

**Q.** Which results are given for `C[C@H](N)C(=O)N1CCN(c2cnc3ccc(-c4ccc5oc(N)nc5c4)cc3n2)CC1` [compound 207]?
**A.** IC50 ([1]; in vitro): < 100 nM; IC50 ([2]; in vitro): < 1000 nM; IC50 [3, 6]: < 1 µM; IC50 ([4]; in vitro): < 100 nM; IC50 ([5]; in vitro): < 100 nM

**Q.** With `C[C@@H](N)C(=O)N1CCN(c2cnc3ccc(-c4ccc5oc(N)nc5c4)cc3n2)CC1` [compound 208] as the compound, how does the IC50 ([1]; in vitro) read?
**A.** < 1000 nM

**Q.** What about the IC50 ([2]; in vitro) of the same compound?
**A.** < 1000 nM

**Q.** What about the IC50 [3, 6] of the same compound?
**A.** < 10 µM

**Q.** And the IC50 ([4]; in vitro)?
**A.** < 100 nM

**Q.** What about the IC50 ([5]; in vitro) of the same compound?
**A.** < 10000 nM

**Q.** `Nc1nc2cc(-c3ccc4ncc(N5CCC(O)C5)nc4c3)ccc2o1` (stereo not drawn) [compound 209] was tested. Which IC50 ([1]; in vitro) did it give?
**A.** < 1000 nM

**Q.** What about the IC50 ([2]; in vitro) of the same compound?
**A.** < 10000 nM

**Q.** And the IC50 [3, 6]?
**A.** < 10 µM

**Q.** What about the IC50 ([4]; in vitro) of the same compound?
**A.** < 100 nM

**Q.** And the IC50 ([5]; in vitro)?
**A.** < 100 nM
